The text below walks through data of PMC4810081, “Venetoclax (ABT-199) Might Act as a Perpetrator in Pharmacokinetic Drug–Drug Interactions” (Pharmaceutics, 2016).

As a reminder, the IC50 is the midpoint of a concentration-inhibition curve. Higher therefore signals weaker potency in that assay.

Series [1] in a line: Growth inhibition assay in MDCKII-BCRP cells. To be noted: dog, MDCKII-BCRP cells (BCRP over-expressing). It is filed as cell-based. Here is the method: MDCKII cells. […] Moreover, MDCKII-BCRP cells were used to assess BCRP inhibition by venetoclax. MDCKII over-expressing cell lines were kindly provided by A. H. Schinkel and P. Borst (Amsterdam, The Netherlands). The parental cell line MDCKII (available at ATCC, Manassas, VA, USA) was used as a control. The cells were cultured in Dulbecco’s Modified Eagle’s Medium (DMEM) containing 10% FCS, 2 mM of glutamine, 100 U/mL of penicillin, and 100 µg/mL of streptomycin sulfate. Growth inhibition assays in LS180 cells were conducted to determine suitable maximum concentrations for the induction assay without profound antiproliferative effects. Proliferation was quantified by crystal violet staining of the surviving cells as described previously. […] Growth inhibition assays in MDCKII, and their MRP2 or BCRP over-expressing counterparts ([…], MDCKII-BCRP) and in LLC-PK1 and the corresponding P-gp over-expressing cell line L-MDR1 were conducted to evaluate whether venetoclax sustains its efficacy in MDR cell lines.

For series [2], the target named is T1, CYP2B6 (Homo sapiens, UniProt P20813).
T1 construct: purchased Becton Dickinson Biosciences (Heidelberg, Germany)
T1 sequence (P20813 whole entry): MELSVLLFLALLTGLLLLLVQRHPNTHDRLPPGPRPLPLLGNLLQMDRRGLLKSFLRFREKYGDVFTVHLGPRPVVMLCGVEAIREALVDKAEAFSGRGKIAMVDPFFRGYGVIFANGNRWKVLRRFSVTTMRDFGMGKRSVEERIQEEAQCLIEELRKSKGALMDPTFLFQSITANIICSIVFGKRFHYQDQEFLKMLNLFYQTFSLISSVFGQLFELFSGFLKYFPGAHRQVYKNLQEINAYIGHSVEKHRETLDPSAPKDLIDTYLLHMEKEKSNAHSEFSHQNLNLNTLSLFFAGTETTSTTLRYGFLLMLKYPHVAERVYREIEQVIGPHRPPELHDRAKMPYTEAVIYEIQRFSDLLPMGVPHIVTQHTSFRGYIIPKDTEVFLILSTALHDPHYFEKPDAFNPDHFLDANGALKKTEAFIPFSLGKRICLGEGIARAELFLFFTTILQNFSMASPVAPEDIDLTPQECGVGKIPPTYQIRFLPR
The experiment in a line: CYP2B6 inhibition, CYP2B6/EFC High Throughput Inhibitor Screening Kit. It is filed as in vitro ADME. Here is the method:
Inhibition studies for CYP2B6, CYP2D6, CYP2C19 and CYP3A4 were performed with the CYP2B6/EFC, CYP2D6/AMMC, the CYP2C19/CEC, and the CYP3A4/BFC High Throughput Inhibitor Screening Kit according to the manufacturer’s instructions. The kits contain the respective recombinant CYP and fluorogenic substrates, which are blocked dyes emitting a fluorescence signal when cleaved by the enzyme. For testing CYP1A2 inhibition, the P450-Glo CYP1A2 Screening System was used according to the manufacturer’s instructions. The kit contains the luminogenic CYP1A2 substrate luciferin-ME, which is converted by CYP1A2 into luciferin-generating light when incubated with the luciferin detection reagent of the kit. Eight concentrations of venetoclax in duplicates (0.009–20 µM) were tested in the fluorescence assays, and eight concentrations in triplicate (0.05–100 µM) were tested for the luminogenic assay. Each experiment was conducted in triplicate.

The test system of series [3] is CYP1A2. In words: Western blot of CYP1A2 protein expression in LS180 cells. It is filed as in vitro ADME, human. To be noted: four days. Here is the method:
(§1) For the induction experiments, LS180 cells were seeded in 75 cm^2 culturing flasks and incubated for three days. Cells were then treated with a culture medium containing venetoclax (0.01–10 µM) in quintuplicate for four consecutive days. Rifampicin (20 µM) served as a positive control for PXR-driven genes and culture medium as a negative control. All incubation solutions were adjusted to 0.02% DMSO. After harvesting, cells were split for RNA and protein extraction.
(§2) To exemplarily verify the effects of venetoclax on mRNA expression, protein expressions of P-gp and CYP1A2 were analyzed in triplicate by SDS polyacrylamide gel electrophoresis (SDS-PAGE) and Western blotting. In brief, cell lysates containing 20 µg protein were mixed with 5× sample buffer (containing Tris–HCl, SDS, DTT, bromophenol blue, and glycerol) and subjected to 10% SDS-PAGE. Afterwards, proteins were electrotransferred to nitrocellulose nitrate membranes. Blots were blocked by incubation for 20–40 min with 5% Slim-Fast® (w/v) in phosphate-buffered saline containing 0.1% Tween®20. […] Bands were visualized by enhanced chemiluminescence using the SuperSignal®West Pico Chemiluminescent Substrate Kit and recorded by FluorChem Q SA AlphaView Version 3.2.2, Cell Biosciences (Santa Clara, CA, USA).
On the technique in general: Immunoblotting shows a protein as a band on a membrane.

Series [4] relates to CYP3A4. In words: Induction assay, CYP3A4 mRNA by real-time RT-PCR in LS180 cells. It is filed as in vitro ADME, human. To be noted: four days, 0.01–10 µM. Here is the method:
(§3) LS180 cells. The human colon adenocarcinoma cell line LS180 (available at ATCC, Manassas, VA, USA) is one of the standard models for investigating pregnane X receptor (PXR) and aryl hydrocarbon receptor (AhR) mediated induction and was thus used for induction experiments. Cells were cultured under standard cell culture conditions with DMEM supplemented with 10% FCS, 2 mM of glutamine, 100 U/mL of penicillin, 100 µg/mL of streptomycin sulfate, and 0.1 mM of nonessential amino acids.
(§4) For the induction experiments, LS180 cells were seeded in 75 cm^2 culturing flasks and incubated for three days. […]
(§5) RNA was isolated using the GenElute™ Mammalian Total RNA Miniprep Kit, and cDNA was synthesized with the RevertAid™ H Minus First Strand cDNA Synthesis Kit according to the manufacturer's instructions. mRNA expression was quantified by real-time RT-PCR with the LightCycler® 480 (Roche Applied Science, Mannheim, Germany) as described previously. […] Data were evaluated via calibrator-normalized relative quantification with efficiency correction using the LightCycler® 480 software version 1.5 (Roche Applied Science, Mannheim, Germany). […] The following target genes were quantified: CYP1A1, CYP1A2, CYP3A4, ABCB1, ABCC2, ABCG2, SLCO1B1 (coding for OATP1B1), UDP-glucuronosyltransferase 1A3 (UGT1A3), and UGT1A9.
In general terms: In qPCR the cycle at which signal appears reflects the starting amount.

Series [5] deals with P-gp. The experiment in a line: Western blot of P-gp protein expression in LS180 cells. It is filed as in vitro ADME, human. To be noted: four days, at 1 and 10 µM. Here is the method:
as §1, §2

For series [6], the system named is UGT1A9. In words: Induction assay, UGT1A9 mRNA by real-time RT-PCR in LS180 cells. It is filed as in vitro ADME, human. The settings on record: four days, 10 µM. Here is the method: as §3, §4, §5
Series [7] relates to Bcl-xL. Also noted: method as in PMID 26639348, PMID 23291630. The settings on record: cited from earlier work.

Compound `CC1(C)CCC(CN2CCN(c3ccc(C(=O)NS(=O)(=O)c4ccc(NCC5CCOCC5)c([N+](=O)[O-])c4)c(Oc4cnc5[nH]ccc5c4)c3)CC2)=C(c2ccc(Cl)cc2)C1` [Venetoclax] came in with an IC50 in series [1] of 15.7 ± 0.4 µM. In addition, the “increase of CYP2B6 activity” value in series [2] (at 20 µM) is recorded as 1.7 fold. In series [2] (recombinant CYP, fluorogenic substrate, 0.009–20 µM tested), the “IC50 CYP2B6 inhibition” value is recorded as “activation”. For the same compound, the CYP1A2 protein expression result in series [3] was “induction”. Further, the “mRNA expression of CYP3A4” value in series [4] is “unchanged”. Further, the P-gp protein expression entry in series [5] is on record as “suppression”. The “mRNA expression of UGT1A9” value in series [6] is on record as “induced”. For the same compound, the Bcl-xL inhibition result in series [7] is listed as “does not inhibit”.
